According to patent publication US9695155B2, “Herbicidal substituted pyrimidinyloxy benzene compounds” (E. I. DU PONT DE NEMOURS AND COMPANY, priority 2013, dated 2017):

What was measured:
Test in all cases: Test C preemergence
[1] = test system: pigweed; type: in vivo, Amaranthus retroflexus; conditions: for Pigweed plant response rating: preemergence; for Plant response rating, Pigweed: Preemergence, scale 0 to 100, 0 no effect, 100 complete control
Procedure, shortened: (§1)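 Plants were kept under greenhouse conditions for 13–15 days following spray. Pre-emergent application went to soil (loam–sand), post-emergent to foliage at 1–4 leaves. Evaluation: visual, percent control against untreated checks.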

[2] = test system: oilseed rape; type: in vivo, Brassica napus; conditions: for Oilseed Rape plant response rating: preemergence; for Plant response rating, Oilseed Rape: Preemergence, scale 0 to 100, 0 no effect, 100 complete control
Procedure, shortened: as §1

[3] = test system: johnsongrass; type: in vivo, Sorghum halepense; conditions: for Johnsongrass plant response rating: preemergence; for Plant response rating, Johnsongrass: Preemergence, scale 0 to 100, 0 no effect, 100 complete control
Procedure, shortened: as §1

[4] = test system: large (Lg) crabgrass; type: in vivo, Digitaria sanguinalis; conditions: for Crabgrass, Large plant response rating: preemergence; for Plant response rating, Crabgrass, Large: Preemergence, scale 0 to 100, 0 no effect, 100 complete control
Procedure, shortened: as §1

[5] = test system: corn; type: in vivo, Zea mays; conditions: for Corn plant response rating: preemergence
Procedure, shortened: as §1

[6] = test system: lambsquarters; type: in vivo, Chenopodium album; conditions: for Lambsquarters plant response rating: preemergence; for Plant response rating, Lambsquarters: Preemergence, scale 0 to 100, 0 no effect, 100 complete control
Procedure, shortened: as §1

[7] = test system: blackgrass; type: in vivo, Alopecurus myosuroides; conditions: for Blackgrass plant response rating: preemergence; for Plant response rating, Blackgrass: Preemergence, scale 0 to 100, 0 no effect, 100 complete control
Procedure, shortened: as §1

[8] = test system: waterhemp; type: in vivo, Amaranthus rudis; conditions: for Waterhemp plant response rating: preemergence; for Plant response rating, Waterhemp: Preemergence, scale 0 to 100, 0 no effect, 100 complete control
Procedure, shortened: as §1

[9] = test system: yellow nutsedge; type: in vivo, Cyperus esculentus; conditions: for Nutsedge, Yellow plant response rating: preemergence; for Plant response rating, Nutsedge, Yellow: Preemergence, scale 0 to 100, 0 no effect, 100 complete control
Procedure, shortened: as §1

[10] = test system: giant foxtail; type: in vivo, Setaria faberii; conditions: for Foxtail, Giant plant response rating: preemergence; for Plant response rating, Foxtail, Giant: Preemergence, scale 0 to 100, 0 no effect, 100 complete control
Procedure, shortened: as §1

[11] = test system: barnyardgrass; type: in vivo, Echinochloa crus-galli; conditions: for Barnyardgrass plant response rating: preemergence; for Plant response rating, Barnyardgrass: Preemergence, scale 0 to 100, 0 no effect, 100 complete control
Procedure, shortened: as §1

[12] = test system: galium; type: in vivo, Galium aparine; conditions: for Galium plant response rating: preemergence; for Plant response rating, Galium: Preemergence, scale 0 to 100, 0 no effect, 100 complete control
Procedure, shortened: as §1

[13] = test system: ragweed; type: in vivo, Ambrosia elatior; conditions: for Ragweed plant response rating: preemergence; for Plant response rating, Ragweed: Preemergence, scale 0 to 100, 0 no effect, 100 complete control
Procedure, shortened: as §1

[14] = 16 g ai/ha, scale 0 to 100 (0 no effect, 100 complete control)
[15] = 31 g ai/ha, scale 0 to 100 (0 no effect, 100 complete control)
[16] = 125 g ai/ha, scale 0 (no effect) to 100 (complete control)
[17] = 62 g ai/ha, scale 0 (no effect) to 100 (complete control)
[18] = 250 g ai/ha, scale 0 (no effect) to 100 (complete control)

NC(=S)c1cccc(Oc2ncc(Cl)cn2)c1-n1cc(Cl)cn1 [Compound 292]
5: Johnsongrass plant response rating [3, 15] | Corn plant response rating [5, 15]
80: Oilseed Rape plant response rating [2, 15] | Lambsquarters plant response rating [6, 15] | Galium plant response rating [12, 14]
100: Pigweed plant response rating [1, 14] | Pigweed plant response rating [1, 15] | Pigweed plant response rating [1, 16] | Plant response rating, Pigweed ([1]; 62 g ai/ha) | Crabgrass, Large plant response rating [4, 14] | Crabgrass, Large plant response rating [4, 15] | Crabgrass, Large plant response rating [4, 16] | Plant response rating, Crabgrass, Large ([4]; 62 g ai/ha) | Lambsquarters plant response rating [6, 16] | Waterhemp plant response rating [8, 14] | Waterhemp plant response rating [8, 15] | Waterhemp plant response rating [8, 16] | Plant response rating, Waterhemp ([8]; 62 g ai/ha) | Foxtail, Giant plant response rating [10, 15] | Foxtail, Giant plant response rating [10, 16] | Plant response rating, Foxtail, Giant ([10]; 62 g ai/ha) | Barnyardgrass plant response rating [11, 16] | Galium plant response rating [12, 16] | Plant response rating, Galium ([12]; 62 g ai/ha)
0: Johnsongrass plant response rating [3, 14] | Corn plant response rating [5, 14] | Blackgrass plant response rating [7, 14] | Nutsedge, Yellow plant response rating [9, 14] | Nutsedge, Yellow plant response rating [9, 15] | Plant response rating, Nutsedge, Yellow ([9]; 62 g ai/ha) | Barnyardgrass plant response rating [11, 14]
98: Oilseed Rape plant response rating [2, 16] | Plant response rating, Oilseed Rape ([2]; 62 g ai/ha) | Plant response rating, Lambsquarters ([6]; 62 g ai/ha) | Galium plant response rating [12, 15]
45: Corn plant response rating [5, 16] | Foxtail, Giant plant response rating [10, 14]
40: Plant response rating, Johnsongrass ([3]; 62 g ai/ha)
90: Blackgrass plant response rating [7, 16] | Plant response rating, Blackgrass ([7]; 62 g ai/ha)
10: Plant response rating, Corn ([5]; Preemergence, 62 g ai/ha, scale 0 to 100, 0 no effect, 100 complete control)
70: Oilseed Rape plant response rating [2, 14] | Blackgrass plant response rating [7, 15] | Ragweed plant response rating [13, 16]
15: Barnyardgrass plant response rating [11, 15]
35: Lambsquarters plant response rating [6, 14] | Nutsedge, Yellow plant response rating [9, 16] | Ragweed plant response rating [13, 15] | Plant response rating, Ragweed ([13]; 62 g ai/ha)
85: Johnsongrass plant response rating [3, 16] | Plant response rating, Barnyardgrass ([11]; 62 g ai/ha)
25: Ragweed plant response rating [13, 14]

N#Cc1cccc(Oc2ncc(Cl)cn2)c1-n1cc(Cl)cn1 [Compound 72]
50: Plant response rating, Blackgrass ([7]; 31 g ai/ha)
100: Pigweed plant response rating [1, 17] | Pigweed plant response rating [1, 16] | Pigweed plant response rating [1, 18] | Plant response rating, Pigweed ([1]; 31 g ai/ha) | Oilseed Rape plant response rating [2, 17] | Oilseed Rape plant response rating [2, 16] | Oilseed Rape plant response rating [2, 18] | Johnsongrass plant response rating [3, 16] | Johnsongrass plant response rating [3, 18] | Crabgrass, Large plant response rating [4, 17] | Crabgrass, Large plant response rating [4, 16] | Crabgrass, Large plant response rating [4, 18] | Plant response rating, Crabgrass, Large ([4]; 31 g ai/ha) | Lambsquarters plant response rating [6, 17] | Lambsquarters plant response rating [6, 16] | Lambsquarters plant response rating [6, 18] | Waterhemp plant response rating [8, 17] | Waterhemp plant response rating [8, 16] | Waterhemp plant response rating [8, 18] | Plant response rating, Waterhemp ([8]; 31 g ai/ha) | Foxtail, Giant plant response rating [10, 17] | Foxtail, Giant plant response rating [10, 16] | Foxtail, Giant plant response rating [10, 18] | Plant response rating, Foxtail, Giant ([10]; 31 g ai/ha) | Barnyardgrass plant response rating [11, 17] | Barnyardgrass plant response rating [11, 16] | Barnyardgrass plant response rating [11, 18]
10: Nutsedge, Yellow plant response rating [9, 16]
90: Blackgrass plant response rating [7, 17] | Blackgrass plant response rating [7, 16] | Galium plant response rating [12, 17] | Galium plant response rating [12, 16]
85: Ragweed plant response rating [13, 16]
35: Plant response rating, Johnsongrass ([3]; 31 g ai/ha)
75: Plant response rating, Barnyardgrass ([11]; 31 g ai/ha) | Ragweed plant response rating [13, 17]
95: Blackgrass plant response rating [7, 18] | Galium plant response rating [12, 18] | Ragweed plant response rating [13, 18]
65: Plant response rating, Oilseed Rape ([2]; 31 g ai/ha) | Corn plant response rating [5, 16] | Corn plant response rating [5, 18]
80: Nutsedge, Yellow plant response rating [9, 18] | Plant response rating, Galium ([12]; 31 g ai/ha)
55: Johnsongrass plant response rating [3, 17] | Plant response rating, Ragweed ([13]; 31 g ai/ha)
25: Corn plant response rating [5, 17]
0: Nutsedge, Yellow plant response rating [9, 17] | Plant response rating, Nutsedge, Yellow ([9]; 31 g ai/ha)
98: Plant response rating, Lambsquarters ([6]; 31 g ai/ha)
